Laboratory results reported in US20240139167A1, “LYSOSOME-ASSOCIATED MEMBRANE PROTEIN TARGETING COMPOUNDS AND USES THEREOF” (HADASIT MEDICAL RESEARCH SERVICES AND DEVELOPMENT LTD., priority 2021, published 2024).

Test system: PD patient-derived skin fibroblasts
Experiment: Autophagic flux in Pompe disease fibroblasts
Assay type: cell-based, human
Experimental: FIG. 15 includes a micrograph and a vertical bar graph showing autophagic flux in PD patient-derived skin fibroblasts, serum starved and treated (or not) with 50 μM 144DG11 (indicated as comp. A).
144DG11 can activate autophagy in the lysosomal storage disease (LSD) Pompe disease (PD) in which autophagy is perturbed (FIG. 15). […] This ratio serves as the most accepted marker for autophagy and autophagic flux. […] These observations indicate that, as in the GSD APBD, 144DG11 can activate autophagy also in the typical LSD PD in which autophagy is disturbed.

CC[C@]1(O)C[C@@H]2CN(CCc3c([nH]c4ccccc34)[C@@](C(=O)OC)(c3cc4c(cc3OC)N(C)[C@H]3[C@@](O)(C(=O)OC)[C@H](OC(C)=O)[C@]5(CC)C=CCN6CC[C@]43[C@@H]65)C2)C1 [vinblastine, reference compound]
ratio of LC3II to LC3I: increased
